Columns and labels:
[1] = system: [Cp*Ir(biot-p-L)Cl] c S112A Sav ATHase (streptavidin variant S112A, SEQ ID NO 1); details: substrate not given, taken as the imine (salsolidine precursor); cited from earlier work
[2] = system: [Cp*Ir(biot-p-L)Cl] c S112K Sav ATHase (streptavidin variant S112K, SEQ ID NO 2); details: substrate not given, taken as the imine (salsolidine precursor); cited from earlier work
[3] = screening of GSH neutralizing agents in GSH-spiked solutions before imine reduction; format: biochemical; details: for efficacy as GSH neutralizing agent: solutions spiked with 2.5 mmol/l GSH, incubated with agent before adding Ir-catalyst, reaction 2 days; for compatibility with the catalytic systems: solutions with or without Sav isoform, with or without 2.5 mmol/l GSH
Procedure: Michael acceptors and oxidizing agents known to react with GSH were selected to yield the corresponding thioether and disulfide, respectively. The following Michael acceptors were tested: maleinimide (Malln), 2-bromo-1-phenylethanone (BrPheOne), phenyl-vinylsulfone (PheViSul) and 3-Phenyl-2-propynenitrile (PhePropNit). The following oxidizing agents were selected: oxone (Ox), 1,4-benzoquinone (BQ), K3[Fe(CN)6] Fe^3+, and diamide (DiAm) (figure 2). For this purpose, solutions either with or without a Sav isoform were spiked with 2.5 mmol/l GSH and incubated overnight in presence of different concentrations of a particular GSH neutralizing agent before adding the Ir-catalyst. The reactions were initiated by addition of the imine substrate and run for 2 days (see Table 2).
An equimolar amount has no benefit on the reaction whereas four equivalents led to a decrease in conversion and enantioselectivity in the case of the S112K mutant. • 4) Despite the fact that H2O2 is commonly used to oxidize GSH, Ox was favoured for this purpose. […] Increasing the concentration of the GSH neutralizing agents leads to less consistent results. The outcome of the reaction depends on the Sav-mutant (if any) is used. […] A similar behaviour is observed with BrPheOne when no Sav or the S112K mutant was present.

[4] = system: [Cp*Ir(biot-p-L)Cl] c S112K Sav (streptavidin variant S112K, SEQ ID NO 2); details: 2.5 mM GSH; substrate 10 mM; purified Sav; RT, 48 h
Procedure: (§1) Initial experiments were performed using 50 µmol/l [Cp*Ir(biot-p-L)Cl], 100 µmol/l biotin binding sites (i.e. 25 µmol/l tetrameric Sav), 1 M HCO2Na in MOPS buffer ([…], pH 7) (see scheme 1). For comparison purposes, the imine reduction was performed with [Cp*Ir(biot-p-L)Cl]; [Cp*Ir(biot-p-L)Cl] c S112A Sav and [Cp*Ir(biot-p-L)Cl] c S112K Sav, cf. scheme 1.
(§2) Without wishing to be bound by theory, the inventors speculate that oxidizing GSH or derivatizing its thiol function could -at least partially- prevent inhibition of the hybrid catalysts.

[5] = system: [Cp*Ir(biot-p-L)Cl] c S112A Sav (streptavidin variant S112A, SEQ ID NO 1); details: 2.5 mM GSH; substrate 10 mM; purified Sav; RT, 48 h
Procedure: as §1, §2

[6] = system: living cells, including E. coli; details: cited from earlier work

Molecule	efficacy as GSH neutralizing agent [3]	compatibility with the catalytic systems [3]	further results
COc1cc2c(cc1OC)C(C)=NCC2 [salsolidine precursor, 1-methyl-6,7-dimethoxy-3,4-dihydroisoquinoline]			kcat [1]: 0.19 s⁻¹; kcat [2]: 0.0433 s⁻¹
N#CC#Cc1ccccc1 [PhePropNit, 3-Phenyl-2-propynenitrile]	most effective when applied at a ratio PhePropNit/GSH 2:1		
O=C1C=CC(=O)N1 [Malln, maleinimide]		limited compatibility	
O=C(CBr)c1ccccc1 [BrPheOne, 2-bromo-1-phenylethanone]	most effective GSH neutralizing agents		
O=C1C=CC(=O)C=C1 [BQ, 1,4-benzoquinone]		not compatible with any of the three catalytic systems	
C=CS(=O)(=O)c1ccccc1 [PheViSul, phenyl-vinylsulfone]	most effective GSH neutralizing agents	does not affect the free Ir-complex	
N[C@@H](CCC(=O)N[C@@H](CS)C(=O)NCC(=O)O)C(=O)O [GSH, glutathione]			inhibition of reduction of the salsolidine precursor [4]: no activity; inhibition of reduction of the salsolidine precursor [5]: no activity
CN(C)C(=O)/N=N/C(=O)N(C)C [DiAm, diamide]	most effective GSH neutralizing agents	fully compatible with the artificial metalloenzymes	compatibility with living cells [6]: causing neither lysis nor death
oxone	efficacy is most pronounced with four equivalents vs. GSH		
